Measured values published in patent US20230255987A1, “AQUEOUS PHARMACEUTICAL COMPOSITION COMPRISING A P2Y12 RECEPTOR ANTAGONIST” (Idorsia Pharmaceuticals Ltd, priority 2020, published 2023).

Columns and labels:
[1] = Stability of COMPOUND in aqueous solution at different pH values in the absence of a buffer (HPLC); type: physicochemical
Method: For instance, a solution of COMPOUND (32 mg/mL) in water at pH 7 (adjusted with aqueous NaOH solution) contained only 33.5% COMPOUND, but 65.2% (R)-2-(6-((S)-3-methoxypyrrolidin-1-yl)-2-phenylpyrimidine-4-carboxamido)-3-phosphonopropanoic acid (hereinafter DEGRADATION COMPOUND) if stored at 60° C. for 1 week (98.6% COMPOUND at t=0, i.e. immediately after preparation of the solution). The amount of DEGRADATION COMPOUND dropped to 24.4% and 10.0% for corresponding aqueous solutions stored under the same conditions but adjusted to pH 8.0 and 9.0, respectively.
(§1) Sample Preparation for High Performance Liquid Chromatography and Method Used • 20 μL of the respective aqueous pharmaceutical composition was filled into a HPLC vial. • 980 μL water was added (dilution factor 50) prior HPLC analysis. • HPLC-UV method used: • HPLC system: High pressure mixing Shimadzu Nexera X2 • Flow: 1.5 mL/min • Column temperature: 50° C. • Autosampler temperature: 25° C. • Injection volume: 1 μL • Column: Phenomenex Gemini 5.0 μm 110 Å, 50×2.0 mm (n° 184) • Wavelength: DAD+250 nm • Solvent A: tris(hydroxymethyl)aminomethane buffer 50 mM pH 9 (adjusted with HCl)+5% (v/v) acetonitrile • Solvent B: Acetonitrile+5% (v/v) tris(hydroxymethyl)aminomethane buffer 50 mM pH 9 (adjusted with HCl) • Gradient: […]
Aqueous formulations containing 32 mg/mL (52 mM) COMPOUND were titrated to pH 7.0, 8.0, and 9.0 using aqueous 1N NaOH solution.
The different formulations were filled into 1 mL sterile, pre-fillable glass syringes after sterile filtration. Samples were analyzed at t=0 and after 1-week storage at 60° C.

[2] = pH shift of unbuffered, pH-adjusted aqueous solution of COMPOUND on storage; type: physicochemical; conditions: initial pH 9.0, 2 days at 70° C.
[3] = rat, at equivalent antithrombotic efficacy, versus ticagrelor; cited from earlier work
platelet = conditions: patients with AMI, cited from earlier work
platelet aggregation = conditions: 15 minutes after subcutaneous administration, doses of 8 mg, 16 mg and 32 mg; cited from earlier work
[4] = Stability of COMPOUND in aqueous solution at pH 9.0 with boric acid buffer at different buffer concentrations, 75° C.; type: physicochemical
Method: as §1
Stability of COMPOUND in aqueous solution at pH 9.0 in the presence of boric acid buffer at different buffer concentrations
Formulation compositions assessing the impact of buffer capacity on formulation stability

[5] = Long-term stability of COMPOUND in 60 mM arginine buffer under different storage conditions (UPLC); type: physicochemical
Method: In a 10 L glass reactor, L-arginine (104 g, 0.60 mol) was added under stirring to water for injection (7.01 kg). COMPOUND hydrochloride (339 g, 0.52 mol) was added portion wise to the solution and the pH value was adjusted to pH=9.0 by addition of 1.0 M aqueous NaOH solution (1.18 kg). Water for injection was added to a total weight of the solution of 10.15 kg.
For stability testing the test samples were prepared by filling 0.54 mL of the above solution into prefillable 1 mL glass syringes with stacked in needle and stored under the conditions given in table 14 and 15. The samples were analysed after the given timepoints by ultra-performance liquid chromatography (UPLC) using the following conditions: • Equipment: • UPLC system, with data acquisition system and UV detection
Mobile phase A: Weigh 3.08 g of ammonium acetate and 3.26 g of ammonium hexafluorophosphate in a 2 L bottle. Dissolve in 1900 mL H2O. Add 100 mL of acetonitrile.
Mobile phase B: Weigh 0.77 g of ammonium acetate in a 1 L bottle. Dissolve in 50 mL H2O. Add 950 mL of acetonitrile.
Diluent: Mix 920 mL of Mobile Phase A with 80 mL Mobile phase B.
Reference standard solution: 0.32 mg/mL of COMPOUND reference standard in diluent.
Sample solution: The samples were diluted to 0.32 mg/mL of COMPOUND (based on amount of COMPOUND in the initial solution) with diluent
Column: 100 mm×3.0 mm, 3 μm C18 column (e.g. YMC Triart C18 ExRS)
Detection wavelength: 246 nm

Content of COMPOUND ([1]; 32 mg/mL in water, pH 7 (NaOH), 60° C. for 1 week): 33.5%
Content of COMPOUND ([1]; 32 mg/mL in water, pH 7 (NaOH), t=0): 98.6%
Content of COMPOUND ([1]; no buffer, pH 7.0, t = 0): 98.55 Area %
Content of COMPOUND ([1]; no buffer, pH 7.0, t = 1 week at 60° C.): 33.5 Area %
Content of COMPOUND ([1]; no buffer, pH 8.0, t = 0): 98.65 Area %
Content of COMPOUND ([1]; no buffer, pH 8.0, t = 1 week at 60° C.): 74.7 Area %
Content of COMPOUND ([1]; no buffer, pH 9.0, t = 0): 98.60 Area %
Content of COMPOUND ([1]; no buffer, pH 9.0, t = 1 week at 60° C.): 88.7 Area %
pH value after storage [2]: 8.5
Content of COMPOUND ([4]; 0 mM B(OH)3, pH 9.0, 75° C., 0 h): 100.00 Area %
Content of COMPOUND ([4]; 0 mM B(OH)3, pH 9.0, 75° C., 24 h): 96.16 Area %
Content of COMPOUND ([4]; 0 mM B(OH)3, pH 9.0, 75° C., 48 h): 89.46 Area %
Content of COMPOUND ([4]; 0 mM B(OH)3, pH 9.0, 75° C., 120 h): 64.89 Area %
Content of COMPOUND ([4]; 0 mM B(OH)3, pH 9.0, 75° C., 168 h): 49.45 Area %
Content of COMPOUND ([4]; 20 mM B(OH)3, pH 9.0, 75° C., 0 h): 100.00 Area %
Content of COMPOUND ([4]; 20 mM B(OH)3, pH 9.0, 75° C., 24 h): 94.61 Area %
Content of COMPOUND ([4]; 20 mM B(OH)3, pH 9.0, 75° C., 48 h): 90.72 Area %
Content of COMPOUND ([4]; 20 mM B(OH)3, pH 9.0, 75° C., 120 h): 74.84 Area %
Content of COMPOUND ([4]; 20 mM B(OH)3, pH 9.0, 75° C., 168 h): 62.18 Area %
Content of COMPOUND ([4]; 60 mM B(OH)3, pH 9.0, 75° C., 0 h): 100.00 Area %
Content of COMPOUND ([4]; 60 mM B(OH)3, pH 9.0, 75° C., 24 h): 96.60 Area %
Content of COMPOUND ([4]; 60 mM B(OH)3, pH 9.0, 75° C., 48 h): 90.21 Area %
Content of COMPOUND ([4]; 60 mM B(OH)3, pH 9.0, 75° C., 120 h): 78.47 Area %
Content of COMPOUND ([4]; 60 mM B(OH)3, pH 9.0, 75° C., 168 h): 68.96 Area %
Content of COMPOUND ([4]; 100 mM B(OH)3, pH 9.0, 75° C., 0 h): 100.00 Area %
Content of COMPOUND ([4]; 100 mM B(OH)3, pH 9.0, 75° C., 24 h): 97.89 Area %
Content of COMPOUND ([4]; 100 mM B(OH)3, pH 9.0, 75° C., 48 h): 93.78 Area %
Content of COMPOUND ([4]; 100 mM B(OH)3, pH 9.0, 75° C., 120 h): 77.85 Area %
Content of COMPOUND ([4]; 100 mM B(OH)3, pH 9.0, 75° C., 168 h): 71.33 Area %
Amount of COMPOUND in the test samples ([5]; 5° C., 1 month): 16.9 mg
Amount of COMPOUND in the test samples ([5]; 5° C., 3 months): 16.8 mg
Amount of COMPOUND in the test samples ([5]; 5° C., 6 months): 16.6 mg
Amount of COMPOUND in the test samples ([5]; 5° C., initial): 16.9 mg
Amount of COMPOUND in the test samples ([5]; 25° C./60% RH, 1 month): 16.8 mg
Amount of COMPOUND in the test samples ([5]; 25° C./60% RH, 3 months): 16.4 mg
Amount of COMPOUND in the test samples ([5]; 25° C./60% RH, 6 months): 16.2 mg
Amount of COMPOUND in the test samples ([5]; 25° C./60% RH, 12 months): 15.9 mg
Amount of COMPOUND in the test samples ([5]; 25° C./60% RH, initial): 16.9 mg
Amount of COMPOUND in the test samples ([5]; 30° C./75% RH, 1 month): 16.7 mg
Amount of COMPOUND in the test samples ([5]; 30° C./75% RH, 3 months): 16.2 mg
Amount of COMPOUND in the test samples ([5]; 30° C./75% RH, 6 months): 15.9 mg
Amount of COMPOUND in the test samples ([5]; 30° C./75% RH, 12 months): 15.2 mg
Amount of COMPOUND in the test samples ([5]; 30° C./75% RH, initial): 16.9 mg
Amount of COMPOUND in the test samples ([5]; 40° C./75% RH, 1 month): 16.2 mg
Amount of COMPOUND in the test samples ([5]; 40° C./75% RH, 3 months): 15.1 mg
Amount of COMPOUND in the test samples ([5]; 40° C./75% RH, 6 months): 13.3 mg
Amount of COMPOUND in the test samples ([5]; 40° C./75% RH, initial): 16.9 mg
SMILES: CCCCOC(=O)N1CCN(C(=O)[C@H](CP(=O)(O)O)NC(=O)c2cc(N3CC[C@H](OC)C3)nc(-c3ccccc3)n2)CC1 [COMPOUND, 4-((R)-2-{[6-((S)-3-methoxy-pyrrolidin-1-yl)-2-phenyl-pyrimidine-4-carbonyl]-amino}-3-phosphono-propionyl)-piperazine-1-carboxylic acid butyl ester]
blood loss [3]: significantly less blood loss than ticagrelor
antiplatelet response (platelet; single-dose subcutaneous): profound, rapid, and dose-related antiplatelet response
safety of single-dose subcutaneous administration (platelet): safe
inhibition of platelet aggregation (platelet aggregation): more than 85%
